Results on 4 compounds are retold here after ChEMBL document CHEMBL1141511, “4,4-Dimethyl-1,2,3,4-tetrahydroquinoline-based PPARalpha/gamma agonists. Part I: synthesis and pharmacological evaluation” (Bioorg Med Chem Lett, 2008).

Test [1] concerns the target T1, Peroxisome proliferator-activated receptor gamma (Homo sapiens, UniProt P37231).
T1 sequence (P37231 whole entry): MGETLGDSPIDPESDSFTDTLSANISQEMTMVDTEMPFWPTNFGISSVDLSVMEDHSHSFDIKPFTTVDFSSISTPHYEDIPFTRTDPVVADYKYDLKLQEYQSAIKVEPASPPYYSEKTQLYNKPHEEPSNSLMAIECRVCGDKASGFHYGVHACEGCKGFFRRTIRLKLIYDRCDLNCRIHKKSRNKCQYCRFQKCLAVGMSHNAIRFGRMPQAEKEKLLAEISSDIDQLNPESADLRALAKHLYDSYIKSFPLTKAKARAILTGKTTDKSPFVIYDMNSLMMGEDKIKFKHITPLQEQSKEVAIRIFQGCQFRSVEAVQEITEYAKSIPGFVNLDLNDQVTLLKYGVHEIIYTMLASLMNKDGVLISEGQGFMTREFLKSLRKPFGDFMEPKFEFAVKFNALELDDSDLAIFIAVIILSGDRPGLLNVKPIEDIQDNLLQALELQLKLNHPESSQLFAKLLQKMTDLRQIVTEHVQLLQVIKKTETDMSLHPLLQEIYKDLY

Test [2] deals with T2, Peroxisome proliferator-activated receptor alpha (Homo sapiens) (UniProt Q07869).
T2 sequence (whole entry): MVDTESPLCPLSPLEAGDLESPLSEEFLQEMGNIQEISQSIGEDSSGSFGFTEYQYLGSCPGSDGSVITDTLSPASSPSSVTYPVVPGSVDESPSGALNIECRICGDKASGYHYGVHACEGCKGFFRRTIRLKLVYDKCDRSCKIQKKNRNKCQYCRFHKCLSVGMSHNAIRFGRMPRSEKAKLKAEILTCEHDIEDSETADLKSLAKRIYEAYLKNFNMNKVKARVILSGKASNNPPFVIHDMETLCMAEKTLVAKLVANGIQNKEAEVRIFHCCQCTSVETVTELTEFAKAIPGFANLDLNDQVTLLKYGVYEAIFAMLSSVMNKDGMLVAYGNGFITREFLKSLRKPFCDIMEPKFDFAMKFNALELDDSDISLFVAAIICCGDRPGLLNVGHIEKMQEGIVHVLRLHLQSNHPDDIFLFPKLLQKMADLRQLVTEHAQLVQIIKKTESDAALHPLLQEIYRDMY
In words: (§1) Agonist activity at human PPARalpha by GAL4 transactivation assay. The class given is functional.

In test [3] the target is T3, Peroxisome proliferator-activated receptor alpha (Homo sapiens, UniProt Q07869).
T3 sequence (Q07869 whole entry): T2 sequence (whole entry)
The description is as §1. Type of test: functional.

Calls of active or inactive are those of the source. The calls are words filed in the database; no cut-off is given here.

With `COC(=O)C(Cc1ccc(OCCN2CCC(C)(C)c3cc(/C(=N\O)c4ccccc4)ccc32)cc1)C(=O)OC`, the Ki in test [1] turned out to be 10 µM. For the same compound, in test [2], the outcome was inactive.

In turn, `CCOC(=O)C(Cc1ccc(OCCN2CCC(C)(C)c3cc(/C(=N\O)c4ccccc4)ccc32)cc1)OCC` (stereo not drawn) showed a Ki in test [1] of 0.618 µM. In test [3], the EC50 turned out to be 189 nM.

On to `COC(=O)C(Cc1ccc(OCCN2CCC(C)(C)c3cc(C(=O)c4ccccc4)ccc32)cc1)C(=O)OC`, for which the Ki in test [1] was found to be 10 µM. Also, the result in test [2] was inactive.

Take `CCO[C@@H](Cc1ccc(OCCc2ccc(OS(C)(=O)=O)cc2)cc1)C(=O)O` [TESAGLITAZAR]: the Ki in test [1] was 0.018 µM. Also, the response in test [3] was half-maximal at 414 nM (EC50).

By Ki is commonly meant a dissociation constant, usually derived from enzyme kinetics or from competition with a known ligand. As usually defined, the EC50 is the concentration at which the effect is half-maximal. Read a high EC50 as a less potent agent.
